Test results from patent publication US5629430A, “Trifluoromethylpyrroloindolecarboxylic acid ester and process for production thereof” (Kyorin Pharmaceutical Co., Ltd., priority 1992, dated 1997).
Converted amounts (≈) assume the structure as drawn. Read-outs that look alike come from different tables or passages of the source.

Columns and labels:
P388 cells = test: Antineoplastic activity, mice having P388 cells transplanted in abdominal cavity; format: in vivo, mouse (female, CDF1 strain); conditions: for T/C (average survival days, dosed vs. solvent-dosed control): next day after transplantation, >=130% effective; for T/C in words: cure (Survived for 60 days or longer): two mice, Cured: Survived for 60 days or longer
Procedure: (§1) The test compound was dissolved in dimethylsulfoxide, and the solution was adequately diluted with 10% Emulfore EL620(produced by Rhone Poulenc Co.) to prepare the test compound solution. The antineoplastic activity was evaluated as below.
To the abdominal cavity of a female mouse (CDF1 strain, 8 to 9 week age), 1×10^6 P388 cells were transplanted. Next day, the test medicine solution was injected intraperitonealy in a single dose. Five to eight mice were employed for the solvent-dosed control group, and two mice were employed for each of the dosed groups. The antineoplastic effect was evaluated by the ratio (T/C, %) of the average survival days of the dosed group (T) to the average survival days of the solvent-dosed control group(C). The T/C ratio of 130% or more is evaluated to be effective.
"Cured": Survived for 60 days or longer

[1] = system: P388 mouse leukemia cells; test: Activity against tumor cell growth (P388, MTT, 72 h); format: cell-based; conditions: read-out: IC50 (50% growth inhibition concentration)
In short: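 P388 cells at 1.5×10^5 cells/ml in RPMI1640 with 10% FBS, 2 mM glutamine and 5 μM 2-hydroxyethyldisulfide; DMSO-dissolved compound diluted in medium, 72 h at 37 °C, 5% CO2. MTT added for 3 h, formazan dissolved in HCl-isopropanol, A540 read. IC50 from absorbance ratio versus untreated cells.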

Sarcoma-180 cells = test: Antineoplastic activity, mice having Sarcoma-180 cells transplanted subcutaneously; format: in vivo, mouse (female, CDR strain); conditions: Mus musculus, Sarcoma-180, iv, 144 h, tumor weighed six days after dosage, read-out: T/C (average tumor weight, dosed vs. solvent-dosed control); for response vs control in vivo at 0.5 mg/kg: i.v. 0.5 mg/kg single dose; for response vs control in vivo at 0.25 mg/kg: i.v. 0.25 mg/kg single dose
Procedure: as §1
To the lateral region of a female mouse (CDR strain, 5 to 6 week age), 3.6×10^6 to 5×10^6 Sarcoma-180 cells were transplanted subcutaneously. Next day, the test medicine solution was injected into the tail vein in a single dose. Eight to twelve mice were employed for the solvent-dosed control group, and five mice were employed for the dosed group. Six days after the dosage, the tumor was cut out, and the weight thereof was measured. The antineoplastic effect was evaluated by the ratio (T/C) of the average tumor weight of the dosed group (T) to the average tumor weight of the solvent-dosed control group (C).

Colon-26 cells = test: Antineoplastic activity, mice having Colon-26 cells transplanted subcutaneously; format: in vivo, mouse (female, CDF1 strain); conditions: Mus musculus, Colon 26, iv, 168 h, tumor weighed one week after dosage, read-out: T/C (average tumor weight, dosed vs. solvent-dosed control); for response vs control in vivo at 0.5 mg/kg: i.v. 0.5 mg/kg single dose on sixth day; for response vs control in vivo at 0.25 mg/kg: i.v. 0.25 mg/kg single dose on sixth day
Procedure: as §1
To the lateral region of a female mouse (CDF1 strain, 8 to 12 week age), 1×10^6 Colon-26 cells were transplanted subcutaneously. On the sixth day after the transplantation, the test medicine solution-was injected into the tail vein in a single dose. Seven to twelve mice were employed for the solvent-dosed control group, and five mice were employed for the dosed group. One week after the dosage, the tumor was cut out, and the weight thereof was measured. The antineoplastic effect was evaluated by the ratio (T/C) of the average tumor weight of the dosed group (T) to the average tumor weight of the solvent-dosed control group (C).

[2] = P388 mouse leukemia cells, 72 h, 37° C., MTT

| SMILES | IC50 [1, 2] [ng/mL] | response vs control in vivo at 0.25 mg/kg (Sarcoma-180 cells) [%] | response vs control in vivo at 0.25 mg/kg (Colon-26 cells) [%] | other results |
| --- | --- | --- | --- | --- |
| COC(=O)c1c(C(F)(F)F)[nH]c2c(O)cc3c(c12)C(CCl)CN3C(=O)c1cc2cc(OC)c(OC)c(OC)c2[nH]1 (centres unmarked) [Example 6, methyl 1-chloromethyl-5-hydroxy-7-trifluoromethyl-3-(5,6,7-trimethoxy-1H-indol-2-ylcarbonyl)-1,2,3,6-tetrahydropyrrolo[3,2-e]indole-8-carboxylate] | 0.24 (≈ 0.412 nM) | – | – | T/C (average survival days, dosed vs. solvent-dosed control) (P388 cells; i.p. 0.5 mg/kg single dose): 206% |
| COC(=O)c1c(C(F)(F)F)[nH]c2c(O)cc3c(c12)C(CCl)CN3C(=O)c1cc2cc(OC)ccc2[nH]1 (centres unmarked) [Example 8, Methyl 1-chloromethyl-5-hydroxy-3-(5-methoxy-1H-indol-2-ylcarbonyl)-7-trifluoromethyl-1,2,3,6-tetrahydropyrrolo[3,2-e]indole-8-carboxylate] | 0.21 (≈ 0.402 nM) | – | – | T/C (average survival days, dosed vs. solvent-dosed control) (P388 cells; i.p. 1.0 mg/kg single dose): 198% |
| COC(=O)c1c(C(F)(F)F)[nH]c2c(O)cc3c(c12)C(CCl)CN3C(=O)c1cc2cc(NC(=O)c3cc4ccccc4o3)ccc2[nH]1 (centres unmarked) [Example 10, Methyl 3-[5-[(benzofuran-2-ylcarbonyl)amino]-1H-indol-2-ylcarbonyl]-1-chloromethyl-5-hydroxy-7-trifluoromethyl-1,2,3,6-tetrahydropyrrolo[3,2-e]indole-8-carboxylate] | 0.52 (≈ 0.799 nM) | – | – | response vs control in vivo at 0.5 mg/kg (Sarcoma-180 cells): 15%; response vs control in vivo at 0.5 mg/kg (Colon-26 cells): 15% |
| COC(=O)c1c(C(F)(F)F)[nH]c2c(O)cc3c(c12)C(CCl)CN3C(=O)c1cc2cc(NC(=O)c3cc4cc(OC)c(OC)c(OC)c4[nH]3)ccc2[nH]1 (centres unmarked) [Example 13, Methyl 1-chloromethyl-5-hydroxy-7-trifluoromethyl-3-[5-[(5,6,7-trimethoxy-1H-indol-2-ylcarbonyl)amino]-1H-indol-2-ylcarbonyl]-1,2,3,6-tetrahydropyrrolo[3,2-e]indole-8-carboxylate] | 0.21 (≈ 0.284 nM) | 11 | 17 | – |
| COC(=O)c1c(C(F)(F)F)[nH]c2c(O)cc3c(c12)C(CCl)CN3C(=O)c1cc2cc(NC(=O)c3cc4c(OC)c(OC)c(OC)cc4[nH]3)ccc2[nH]1 (centres unmarked) [Example 14, Methyl 1-chloromethyl-5-hydroxy-7-trifluoromethyl-3-[5-[(4,5,6-trimethoxy1H-indol-2-ylcarbonyl)amino]-1H-indol-2-ylcarbonyl]-1,2,3,6-tetrahydropyrrolo[3,2-e]indole-8-carboxylate] | 0.1 (≈ 0.135 nM) | – | – | response vs control in vivo at 0.5 mg/kg (Sarcoma-180 cells): 7%; response vs control in vivo at 0.5 mg/kg (Colon-26 cells): 5% |
| COC(=O)c1c(C(F)(F)F)[nH]c2c(O)cc3c(c12)C(CCl)CN3C(=O)c1cc2cc(NC(=O)c3cnc4ccccc4c3)ccc2[nH]1 (centres unmarked) [Example 16, Methyl 1-chloromethyl-5-hydroxy-3-[5-[(quinoline-3-ylcarbonyl)amino]-1H-indol-2-ylcarbonyl]-7-trifluoromethyl-1,2,3,6-tetrahydropyrrolo[3,2-e]indole-8-carboxylate] | 0.16 (≈ 0.242 nM) | – | – | response vs control in vivo at 0.5 mg/kg (Sarcoma-180 cells): 17%; response vs control in vivo at 0.5 mg/kg (Colon-26 cells): 16% |
| COC(=O)c1c(C(F)(F)F)[nH]c2c(O)cc3c(c12)C(CCl)CN3C(=O)c1cc2cc(NC(=O)c3cc4ccccc4cn3)ccc2[nH]1 (centres unmarked) [Example 17, Methyl 1-chloromethyl-5-hydroxy-3-[5-[(isoquinolin-3-ylcarbonyl)amino]-1H-indol-2-ylcarbonyl]-7trifluoromethyl-1,2,3,6-tetrahydropyrrolo[3,2-e]indole-8-carboxylate] | 0.09 (≈ 0.136 nM) | 25 | 18 | – |
| COC(=O)c1c(C(F)(F)F)[nH]c2c(O)cc3c(c12)C(CCl)CN3C(=O)c1cc2cc(NC(=O)c3cc4c(OC)c(OC)c(OC)cc4cn3)ccc2[nH]1 (centres unmarked) [Example 18, Methyl 1-chloromethyl-5-hydroxy-7-trifluoromethyl-3-[5-[(5,6,7-trimethoxyisoquinolin-3-ylcarbonyl)amino]-1H-indol-2-ylcarbonyl]-1,2,3,6-tetrahydropyrrolo[3,2-e]indole-8-carboxylate] | 0.09 (≈ 0.12 nM) | 25 | 7 | – |
| COC(=O)c1c(C(F)(F)F)[nH]c2c1C13CC1CN(C(=O)c1cc4cc(OC)c(OC)c(OC)c4[nH]1)C3=CC2=O (centres unmarked) [Example 20, methyl 6-trifluoromethyl-2-(5,6,7-trimethoxy1H-indol-2-ylcarbonyl)-1,2,8,8a-tetrahydrocyclopropa[c]-pyrrolo[3,2e]indole-4 (5H)-one-7-carboxylate] | 0.24 (≈ 0.44 nM) | – | 15 | response vs control in vivo at 0.25 mg/kg (Sarcoma-180 cells; *(n = 4)): 36%; T/C (average survival days, dosed vs. solvent-dosed control) (P388 cells; i.p. 0.125 mg/kg single dose): 194% |
| COC(=O)c1c(C(F)(F)F)[nH]c2c1C13CC1CN(C(=O)c1cc4cc(OC)ccc4[nH]1)C3=CC2=O (centres unmarked) [Example 22, Methyl 2-(5-methoxy-1H-indol-2-ylcarbonyl)-6-trifluoromethyl-1,2,8,8a-tetrahydrocyclopropa[c]pyrrolo[3,2-e]indole-4 (5H)-one-7-carboxylate] | 0.23 (≈ 0.474 nM) | – | – | T/C (average survival days, dosed vs. solvent-dosed control) (P388 cells; i.p. 0.125 mg/kg single dose): 169% |
| COC(=O)c1c(C(F)(F)F)[nH]c2c1C13CC1CN(C(=O)c1cc4cc(NC(=O)c5cc6ccccc6[nH]5)ccc4[nH]1)C3=CC2=O (centres unmarked) [Example 23, Methyl 2-[5-[(1H-indol-2-ylcarbonyl)amino]-1H-indol-2-ylcarbonyl]-6-trifluoromethyl-1,2,8,8a-tetrahydrocyclopropa[c]pyrrolo[3,2-e]indole-4 (5H)-one-7-carboxylate] | 0.86 (≈ 1.4 nM) | 16 | 12 | T/C in words: cure (Survived for 60 days or longer) (P388 cells; i.p. 0.25 mg/kg single dose): Both cured |
| COC(=O)c1c(C(F)(F)F)[nH]c2c1C13CC1CN(C(=O)c1cc4cc(NC(=O)c5cc6ccccc6o5)ccc4[nH]1)C3=CC2=O (centres unmarked) [Example 24, Methyl 2-[5-[(benzofuran-2-ylcarbonyl)amino]-1H-indol-2-ylcarbonyl]-6-trifluoromethyl-1,2,8,8a-tetrahydrocyclopropa[c]pyrrolo[3,2-e]indole-4 (5H)-one-7-carboxylate] | 0.53 (≈ 0.862 nM) | 17 | 11 | T/C in words: cure (Survived for 60 days or longer) (P388 cells; i.p. 0.125 mg/kg single dose): Both cured |
| COC(=O)c1c(C(F)(F)F)[nH]c2c(O)cc3c(c12)C(CBr)CN3C(=O)c1cc2cc(OC)c(OC)c(OC)c2[nH]1 (centres unmarked) [Example 34, methyl 1-bromomethyl-5-hydroxy-7-trifluoromethyl-3-(5,6,7-trimethoxy-1H-indol-2-ylcarbonyl)-1,2,3,6-tetrahydropyrrolo[3,2e]indole-8-carboxylate] | 0.15 (≈ 0.239 nM) | 37 | – | T/C (average survival days, dosed vs. solvent-dosed control) (P388 cells; i.p. 0.125 mg/kg single dose): 189% |
| COC(=O)c1c(C(F)(F)F)[nH]c2c(O)cc3c(c12)C(CBr)CN3C(=O)c1cc2cc(NC(=O)c3cc4ccccc4[nH]3)ccc2[nH]1 (centres unmarked) [Example 36, Methyl 1-bromomethyl-5-hydroxy-3-[5-[(1H-indol-2-ylcarbonyl)amino]-1H-indol-2-ylcarbonyl)-7-trifluoromethyl-1,2,3,6-tetrahydropyrrolo[3,2-e]indole-8-carboxylate] | 1.3 (≈ 1.87 nM) | 14 | – | T/C (average survival days, dosed vs. solvent-dosed control) (P388 cells; i.p. 0.125 mg/kg single dose): 384% |
| COC(=O)c1c(C(F)(F)F)[nH]c2c(OC(=O)N3CCN(C)CC3)cc3c(c12)C(CCl)CN3C(=O)c1cc2cc(OC)c(OC)c(OC)c2[nH]1 (centres unmarked) [Example 46] | – | – | – | T/C (average survival days, dosed vs. solvent-dosed control) (P388 cells; i.p. 4 mg/kg single dose): 221%; IC50 ([1]; Mus musculus, P388, 72 h): 22 ng/mL (≈ 31.1 nM) |
